Reference: patent US12180187B2, “1-phenyl-5-azinylpyrazolyl-3-oxyalkyl acids and their use for controlling unwanted plant growth” (BAYER AKTIENGESELLSCHAFT, priority 2019, dated 2024)

Key:
ALOMY [1] = test: Pre-emergence action at 320 g/ha against ALOMY; assay type: in vivo, Alopecurus myosuroides; conditions: scored visually after about 3 weeks vs untreated controls (100% = plants have died)
Text: (§1) b) Seeds of monocotyledonous and dicotyledonous weed plants and crop plants are placed in plastic or organic planting pots and covered with soil. The compounds of the invention, formulated in the form of wettable powders (WP) or as emulsion concentrates (EC), are then applied onto the surface of the covering soil as aqueous suspension or emulsion with addition of 0.5% additive at a water application rate of 600 l/ha (converted). After the treatment, the pots are placed in a greenhouse and kept under good growth conditions for the trial plants. After about 3 weeks, the effect of the preparations is scored visually in comparison with untreated controls as percentages. For example, 100% activity=the plants have died, 0% activity=like control plants. Tables 13 to 26 below show the effects of selected compounds of the general formula (I) on various harmful plants and at an application rate corresponding to 320 g/ha, which were obtained by the experimental procedure mentioned above.

SETVI [2] = test: Pre-emergence action at 320 g/ha against SETVI; assay type: in vivo, Setaria viridis; conditions: visual scoring after about 3 weeks vs untreated controls
Text: as §1

VIOTR = test: Pre-emergence action at 320 g/ha against VIOTR; assay type: in vivo, Viola tricolor; conditions: dosage 320 g/ha
Text: as §1

MATIN [3] = test: Pre-emergence action at 320 g/ha against MATIN; assay type: in vivo, Tripleurospermum inodorum (Matricaria inodora); conditions: visual scoring after about 3 weeks vs untreated controls
Text: as §1

LOLRI [4] = test: Pre-emergence action at 320 g/ha against LOLRI; assay type: in vivo, Lolium rigidum; conditions: visual scoring after about 3 weeks vs untreated controls
Text: as §1

AMARE [5] = test: Pre-emergence action at 320 g/ha against AMARE; assay type: in vivo, Amaranthus retroflexus; conditions: visual scoring after about 3 weeks vs untreated controls
Text: as §1

DIGSA [6] = test: Pre-emergence action at 320 g/ha against DIGSA; assay type: in vivo, Digitaria sanguinalis; conditions: visual scoring after about 3 weeks vs untreated controls
Text: as §1

POAAN [7] = test: Post-emergence action against POAAN, 1.28 kg/ha; assay type: in vivo, Poa annua; conditions: dosage 1280 g/ha, visual rating about 3 weeks after treatment vs untreated controls
In short: (§2)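 Percent activity was scored visually ~3 wk post-spray relative to untreated plants. Treatment was post-emergence at the one-leaf stage using WP/EC in water with 0.5% additive (600 L/ha).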

STEME [8] = test: Pre-emergence action against STEME, 1280 g/ha; assay type: in vivo, Stellaria media; conditions: scored visually after about 3 weeks vs untreated controls (100% = plants have died)
In short: (§3)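 Visual percent-effect ratings (0% = like control, 100% = plants dead) were taken about 3 weeks after pre-emergence soil-surface application of WP/EC aqueous formulations with 0.5% additive, 600 L water/ha. Seeds were sown in sandy loam and grown in the greenhouse.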

MATIN [9] = test: Pre-emergence action against MATIN, 1280 g/ha; assay type: in vivo, Tripleurospermum inodorum (Matricaria inodora); conditions: scored visually after about 3 weeks vs untreated controls (100% = plants have died)
In short: as §3

SETVI [10] = test: Post-emergence action against SETVI, 1.28 kg/ha; assay type: in vivo, Setaria viridis; conditions: dosage 1280 g/ha, visual rating about 3 weeks after treatment vs untreated controls
Method: (§4) • a) Seeds of mono- and dicotyledonous weed plants are placed in plastic pots in sandy loam soil (twin sowing with one species each of mono- or dicotyledonous weed plants per pot), covered with soil and cultivated in a greenhouse under controlled growth conditions. 2 to 3 weeks after sowing, the test plants are treated at the one-leaf stage. The compounds of the invention, formulated in the form of wettable powders (WP) or as emulsion concentrates (EC), are applied to the green parts of the plants as aqueous suspension or emulsion with addition of 0.5% additive at a water application rate equivalent to 600 litres per hectare. After the test plants have been kept in the greenhouse under optimum growth conditions for about 3 weeks, the activity of the preparations is rated visually in comparison to untreated controls. For example, 100% activity=the plants have died, 0% activity=like control plants. As shown by the results, compounds of the general formula (I) of the invention, in post-emergence treatment, have very good herbicidal efficacy (90% to 100% herbicidal action) against harmful plants such as Abutilon theophrasti, Digitaria sanguinalis, Echinochloa crus-galli, Matricaria inodora, Poa annua, at an application rate of 1.28 kg of active substance per hectare.

ABUTH = test: Post-emergence action against ABUTH, 1.28 kg/ha; assay type: in vivo, Abutilon theophrasti; conditions: dosage 1280 g/ha, visual rating about 3 weeks after treatment vs untreated controls (100% = plants died)
Method: as §4

VERPE [11] = test: Post-emergence action against VERPE, 1.28 kg/ha; assay type: in vivo, Veronica persica; conditions: dosage 1280 g/ha, visual rating about 3 weeks after treatment vs untreated controls (100% = plants died)
In short: as §2

DIGSA [12] = test: Post-emergence action against DIGSA, 1.28 kg/ha; assay type: in vivo, Digitaria sanguinalis; conditions: dosage 1280 g/ha, visual rating about 3 weeks after treatment vs untreated controls
In short: as §2

VERPE [13] = test: Pre-emergence action against VERPE, 1280 g/ha; assay type: in vivo, Veronica persica; conditions: scored visually after about 3 weeks vs untreated controls (100% = plants have died)
In short: as §3

DIGSA [14] = test: Pre-emergence action against DIGSA, 1280 g/ha; assay type: in vivo, Digitaria sanguinalis; conditions: visual scoring after about 3 weeks vs untreated controls, 100% = plants have died, 0% = like control plants
In short: as §3

SETVI [15] = test: Pre-emergence action against SETVI, 1280 g/ha; assay type: in vivo, Setaria viridis; conditions: visual scoring after about 3 weeks vs untreated controls, 100% = plants have died, 0% = like control plants
In short: as §3

POAAN [16] = test: Pre-emergence action against POAAN, 1280 g/ha; assay type: in vivo, Poa annua; conditions: visual scoring after about 3 weeks vs untreated controls, 100% = plants have died, 0% = like control plants
In short: as §3

ALOMY [17] = test: Post-emergence action against ALOMY, 1.28 kg/ha; assay type: in vivo, Alopecurus myosuroides; conditions: dosage 1280 g/ha, visual rating about 3 weeks after treatment vs untreated controls
In short: as §2

MATIN [18] = test: Post-emergence action against MATIN, 1.28 kg/ha; assay type: in vivo, Tripleurospermum inodorum (Matricaria inodora); conditions: dosage 1280 g/ha, visual rating about 3 weeks after treatment vs untreated controls (100% = plants died)
In short: as §2

ECHCG [19] = test: Post-emergence action against ECHCG, 1.28 kg/ha; assay type: in vivo, Echinochloa crus-galli; conditions: dosage 1280 g/ha, visual rating about 3 weeks after treatment vs untreated controls
Method: as §4

AMARE [20] = test: Pre-emergence action against AMARE, 1280 g/ha; assay type: in vivo, Amaranthus retroflexus; conditions: scored visually after about 3 weeks vs untreated controls (100% = plants have died)
In short: as §3

LOLRI [21] = test: Pre-emergence action against LOLRI, 1280 g/ha; assay type: in vivo, Lolium rigidum; conditions: visual scoring after about 3 weeks vs untreated controls, 100% = plants have died, 0% = like control plants
In short: as §3

AMARE [22] = test: Post-emergence action against AMARE, 1.28 kg/ha; assay type: in vivo, Amaranthus retroflexus; conditions: dosage 1280 g/ha, visual rating about 3 weeks after treatment vs untreated controls (100% = plants died)
In short: as §2

STEME [23] = test: Post-emergence action against STEME, 1.28 kg/ha; assay type: in vivo, Stellaria media; conditions: dosage 1280 g/ha, visual rating about 3 weeks after treatment vs untreated controls (100% = plants died)
Method: as §4

ECHCG [24] = test: Pre-emergence action against ECHCG, 1280 g/ha; assay type: in vivo, Echinochloa crus-galli; conditions: visual scoring after about 3 weeks vs untreated controls, 100% = plants have died, 0% = like control plants
In short: as §3

VERPE [25] = test: Pre-emergence action at 320 g/ha against VERPE; assay type: in vivo, Veronica persica; conditions: visual scoring after about 3 weeks vs untreated controls
Text: as §1

POLCO = test: Pre-emergence action at 320 g/ha against POLCO; assay type: in vivo, Fallopia convolvulus (Polygonum convolvulus); conditions: visual scoring after about 3 weeks vs untreated controls
Text: as §1

ALOMY [26] = test: Pre-emergence action against ALOMY, 1280 g/ha; assay type: in vivo, Alopecurus myosuroides; conditions: visual scoring after about 3 weeks vs untreated controls, 100% = plants have died, 0% = like control plants
In short: as §3

AVEFA = test: Pre-emergence action at 320 g/ha against AVEFA; assay type: in vivo; conditions: visual scoring after about 3 weeks vs untreated controls
Text: as §1

Row | Compound | Pre-emergence action at 320 g/ha against ALOMY in % (ALOMY [1]) [%] | Pre-emergence action against SETVI in % (SETVI [2]) [%] | Pre-emergence action against VIOTR in % (VIOTR) [%] | Pre-emergence action against MATIN in % (MATIN [3]) [%] | Pre-emergence action against LOLRI in % (LOLRI [4]) [%] | Pre-emergence action against AMARE in % (AMARE [5]) [%] | Pre-emergence action against DIGSA in % (DIGSA [6]) [%] | Post-emergence action against POAAN (POAAN [7]) [%] | Pre-emergence action against STEME (STEME [8]) [%] | Pre-emergence action against MATIN (MATIN [9]) [%] | Post-emergence action against SETVI (SETVI [10]) [%] | Post-emergence action against ABUTH (ABUTH) [%] | Pre-emergence action against VERPE (VERPE [13]) [%] | Pre-emergence action against SETVI (SETVI [15]) [%] | Pre-emergence action against POAAN (POAAN [16]) [%] | Post-emergence action against MATIN (MATIN [18]) [%] | Post-emergence action against ECHCG (ECHCG [19]) [%] | Pre-emergence action against AMARE (AMARE [20]) [%] | Pre-emergence action against LOLRI (LOLRI [21]) [%] | Pre-emergence action against VERPE in % (VERPE [25]) [%] | further results
1 | COC(=O)CNC(=O)C(F)Oc1nn(-c2ccccc2F)c(-c2ccc(F)nc2)c1Br (centres unmarked) [Example X-014] | 90 | 90 | 100 | 90 | 90 | 100 |  |  |  |  |  |  |  |  |  |  |  |  |  |  | 
2 | COC(=O)CN(C)C(=O)COc1nn(-c2ccccc2F)c(-c2ccc(F)nc2)c1Br [Example X-030] | 90 | 80 | 90 |  |  | 90 | 100 |  |  |  |  |  |  |  |  |  |  |  |  |  | 
3 | O=C(O)C1CCN(C(=O)COc2nn(-c3ccccc3F)c(-c3cncc(F)c3)c2Br)CC1 [Example X-038] |  |  |  |  |  |  |  | 100 | 90 | 90 | 90 | 90 | 90 | 100 | 100 | 100 | 90 | 100 | 90 |  | Post-emergence action against VERPE (VERPE [11]): 100%; Post-emergence action against DIGSA (DIGSA [12]): 90%; Pre-emergence action against DIGSA (DIGSA [14]): 90%; Post-emergence action against ALOMY (ALOMY [17]): 90%
4 | CCOC(=O)COc1nn(-c2cc(F)c(F)cc2F)c(-c2ccc(F)nc2)c1Cl [VII-009] |  |  |  |  |  |  |  | 100 | 100 | 100 | 90 | 90 | 90 | 100 | 100 | 100 | 100 | 100 | 100 |  | Post-emergence action against AMARE (AMARE [22]): 100%; Post-emergence action against STEME (STEME [23]): 100%; Pre-emergence action against ECHCG (ECHCG [24]): 90%; Post-emergence action against VERPE (VERPE [11]): 90%
5 | C[C@@H](Oc1nn(-c2ccccc2)c(-c2cccnc2)c1Cl)C(=O)O [VII-042] | 90 |  | 100 | 90 | 100 | 100 |  |  |  |  |  |  |  |  |  |  |  |  |  | 90 | Pre-emergence action against POLCO in % (POLCO): 100%
6 | CCOC(=O)C(F)Oc1nn(-c2ccccc2F)c(-c2ccc(F)nc2)c1Br (centres unmarked) [VII-071-a] | 80 |  | 100 | 90 | 100 | 100 | 90 |  |  |  |  |  |  |  |  |  |  |  |  | 80 | Pre-emergence action against POLCO in % (POLCO): 90%
7 | C#Cc1c(OCC(=O)OCC)nn(-c2ccccc2F)c1-c1ccc(F)nc1 [VII-088] |  |  |  |  |  |  |  | 100 | 100 | 100 | 90 | 90 | 100 | 100 | 100 | 100 | 100 | 100 | 100 |  | Post-emergence action against AMARE (AMARE [22]): 100%; Post-emergence action against STEME (STEME [23]): 90%; Pre-emergence action against ALOMY (ALOMY [26]): 100%; Pre-emergence action against ECHCG (ECHCG [24]): 100%; Post-emergence action against DIGSA (DIGSA [12]): 100%; Pre-emergence action against DIGSA (DIGSA [14]): 100%
8 | CCOC(=O)COc1nn(-c2ccccc2)c(-c2ccc(F)nc2)c1Br [VII-116] | 100 | 100 | 90 | 90 | 100 | 100 | 100 |  |  |  |  |  |  |  |  |  |  |  |  | 100 | Pre-emergence action against POLCO in % (POLCO): 90%; Pre-emergence action against AVEFA in % (AVEFA): 90%
